Experimental data as given in US12012392B2, “Sulfonamide carboxamide compounds” (Inflazome Limited, priority 2017, dated 2024).

Legend:
[1] = system: NLRP3 inflammasome; details: limited potency, nonspecific; cited from earlier work
[2] = PK protocol (intravenous and oral administration); assay type: in vivo, male Sprague Dawley rats; details: male, Sprague Dawley, plasma, rat, intravenous, dose 1 mg/kg; for Vd: read-out: Vdss
Protocol: Pharmacokinetic parameters were determined in male Sprague Dawley rats (Charles River, UK, 250-350 g; or Vital River Laboratory Animal Technology Co Ltd, Beijing, China, 7-9 weeks old). Animals were individually housed during the study and maintained under a 12 h light/dark cycle. Animals had free access to food and water except that some orally dosed animals were food deprived overnight prior to the study. For intravenous administration, compounds were formulated as a solution in water or DMSO:PBS [10:90] in 2 mL/kg dosing volume and administered via tail vein. For oral administration, compounds were formulated as a solution in water or DMSO:water [10:90] in 5 mL/kg dosing volume and administered orally.
Serial blood samples (about 120-300 μL) were taken from each animal at each of 8 time-points post dose (0.083, 0.25, 0.5, 1, 2, 4, 8 and 24 h) or at each of 12 time-points post dose (0.03, 0.1, 0.17, 0.25, 0.5, 1, 2, 4, 6, 8, 12 and 24 h) or pre-dose and at each of 9 time-points post dose (0.25, 0.5, 1, 2, 4, 6, 8, 12 and 24 h). Samples were held on ice for no longer than 30 minutes before centrifugation (10,000 rpm (8,385 g) for 3 minutes; or 5,696 rpm (3,000 g) for 15 minutes) for plasma generation. Plasma was frozen on dry ice prior to bioanalysis. PK parameters were generated from LC-MS/MS data using Dotmatics or Phoenix WinNonlin 6.3 software.

[3] = biological target: T1, NLRP3 (Homo sapiens, UniProt Q96P20); test: THP-1 cells pyroptosis assay; assay type: cell-based; parameters: Seed THP-1 cells (25,000 cells/well) containing 1.0 μg/ml LPS; host or cells: THP-1 cells, LPS-primed, nigericin-stimulated; details: LPS 1 μg/ml, nigericin 5 μM, resazurin read-out
Summary of the method: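 THP-1 cells (25,000/well) primed with 1 μg/ml LPS in serum-free RPMI, given compound (8-point half-log, 10 μM top, 0.1% DMSO) for 3 hrs, then nigericin 5 μM for 1 hr at 37° C. Viability of remaining cells read by resazurin (100 μM, 1–2 hrs) fluorescence; IC50 from 4-parameter fit.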

[4] = biological target: T1, NLRP3; test: Human whole blood IL1β release assay; assay type: cell-based; parameters: Plate out 80 μl of whole blood containing 1 μg/ml of LPS; from tissue; host or cells: human whole blood from healthy donors, LPS-primed, nigericin-stimulated; details: LPS 1 μg/ml, nigericin 10 μM, IL-1β AlphaLisa, read-out: HWB IC50
Summary of the method: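 Donor Li-heparin whole blood with 1 μg/ml LPS preincubated 3 h at 37 °C with compound (8-point half-log series, 10 μM top; 0.1% DMSO). Nigericin (10 μM final) added for 1 h, then supernatant IL-1β measured by AlphaLISA. IC50 from 4-parameter variable-slope fit.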

T1 sequence (Q96P20 whole entry): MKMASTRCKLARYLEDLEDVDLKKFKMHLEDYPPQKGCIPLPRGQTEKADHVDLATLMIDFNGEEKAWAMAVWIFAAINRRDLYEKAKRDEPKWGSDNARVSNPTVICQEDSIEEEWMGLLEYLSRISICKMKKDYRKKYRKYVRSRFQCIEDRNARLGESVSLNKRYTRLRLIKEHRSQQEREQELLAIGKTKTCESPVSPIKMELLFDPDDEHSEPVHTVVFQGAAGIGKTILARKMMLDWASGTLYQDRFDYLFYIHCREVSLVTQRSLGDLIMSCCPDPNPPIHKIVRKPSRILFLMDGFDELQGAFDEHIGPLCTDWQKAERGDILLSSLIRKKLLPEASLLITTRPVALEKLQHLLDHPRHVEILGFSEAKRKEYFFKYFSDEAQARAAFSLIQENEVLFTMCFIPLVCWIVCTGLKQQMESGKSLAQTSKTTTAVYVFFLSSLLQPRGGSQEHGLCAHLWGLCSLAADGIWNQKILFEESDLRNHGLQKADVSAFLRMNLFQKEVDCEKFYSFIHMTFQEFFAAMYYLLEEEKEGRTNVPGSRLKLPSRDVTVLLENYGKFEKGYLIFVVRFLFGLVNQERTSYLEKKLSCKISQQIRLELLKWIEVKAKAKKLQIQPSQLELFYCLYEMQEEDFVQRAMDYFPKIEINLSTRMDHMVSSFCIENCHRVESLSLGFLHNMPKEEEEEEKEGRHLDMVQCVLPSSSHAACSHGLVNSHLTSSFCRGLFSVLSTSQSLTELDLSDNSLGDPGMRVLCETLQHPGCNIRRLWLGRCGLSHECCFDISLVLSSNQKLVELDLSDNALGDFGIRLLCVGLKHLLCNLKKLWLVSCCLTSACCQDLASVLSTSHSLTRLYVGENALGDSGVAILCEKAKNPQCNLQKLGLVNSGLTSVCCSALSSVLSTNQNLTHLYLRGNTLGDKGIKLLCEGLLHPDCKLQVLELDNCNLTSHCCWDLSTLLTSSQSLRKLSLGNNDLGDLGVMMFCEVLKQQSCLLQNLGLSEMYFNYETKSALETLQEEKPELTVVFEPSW

Structure (SMILES) | AUC [2] [ng·h/mL] | clearance [2] [mL/min/kg] | half-life [2] [h] | Vd [2] [L/kg] | IC50 [3] [nM] | IC50 [4] [nM] | NLRP3 inhibition (potency in words) [1]
C[S+](C)[O-] [dimethyl sulfoxide (DMSO), dimethyl sulfoxide] | – | – | – | – | – | – | weak
O=[N+]([O-])C=Cc1ccc2c(c1)OCO2 [3,4-methylenedioxy-β-nitrostyrene] | – | – | – | – | – | – | weak
CC(O)C(C)n1ccc(S(=O)(=O)NC(=O)Nc2c3c(cc4c2CCC4)CCC3)n1 (racemic) [Example 23, N-((1,2,3,5,6,7-Hexahydro-s-indacen-4-yl)carbamoyl)-1-(3-hydroxybutan-2-yl)-1H-pyrazole-3-sulfonamide] | 20100 | 0.8 | 2.6 | 0.12 | 40 to 160 | < 400 | –

Further lines, with some results ahead:

AUC [2] [ng·h/mL] | clearance [2] [mL/min/kg] | half-life [2] [h] | Vd [2] [L/kg] | IC50 [3] [nM] | IC50 [4] [nM] | Structure (SMILES) | NLRP3 inhibition (potency in words) [1]
7030 | 2.4 | 3.5 | 0.37 | 40 to 160 | < 400 | O=C(Nc1c2c(cc3c1CCC3)CCC2)NS(=O)(=O)c1ccn(C2(CO)CCC2)n1 [Example 24, N-((1,2,3,5,6,7-Hexahydro-s-indacen-4-yl)carbamoyl)-1-(1-(hydroxymethyl)cyclobutyl)-1H-pyrazole-3-sulfonamide] | –
2960 | 5.6 | 0.7 | 0.24 | < 40 | < 400 | COC1(c2cc(S(=O)(=O)NC(=O)Nc3c4c(cc5c3CCC5)CCC4)nn2C(C)C)COC1 [Example 42, N-((1,2,3,5,6,7-Hexahydro-s-indacen-4-yl)carbamoyl)-1-isopropyl-5-(3-methoxyoxetan-3-yl)-1H-pyrazole-3-sulfonamide] | –
1860 | 9 | 6.6 | 1.18 | 40 to 160 | < 400 | Cn1nc(S(=O)(=O)NC(=O)Nc2c3c(cc4c2CCC4)CCC3)cc1C1(O)COC1 [Example 51, N-((1,2,3,5,6,7-Hexahydro-s-indacen-4-yl)carbamoyl)-5-(3-hydroxyoxetan-3-yl)-1-methyl-1H-pyrazole-3-sulfonamide] | –
